The results in this text go back to patent publication US4092412A, “Treatment of herpes simplex infections” (Abbott Laboratories, priority 1977, dated 1978).

Experiment [1] addresses T1, Herpes simplex type 2 deoxyribonucleic acid (DNA) polymerase (Human herpesvirus 2, UniProt P89453).
T1 construct: made in house; host or cells: Herpes virus infected Wi-38 cells (native viral enzyme, not recombinant; DEAE-cellulose and phosphocellulose chromatography)
T1 sequence (P89453 1-1240): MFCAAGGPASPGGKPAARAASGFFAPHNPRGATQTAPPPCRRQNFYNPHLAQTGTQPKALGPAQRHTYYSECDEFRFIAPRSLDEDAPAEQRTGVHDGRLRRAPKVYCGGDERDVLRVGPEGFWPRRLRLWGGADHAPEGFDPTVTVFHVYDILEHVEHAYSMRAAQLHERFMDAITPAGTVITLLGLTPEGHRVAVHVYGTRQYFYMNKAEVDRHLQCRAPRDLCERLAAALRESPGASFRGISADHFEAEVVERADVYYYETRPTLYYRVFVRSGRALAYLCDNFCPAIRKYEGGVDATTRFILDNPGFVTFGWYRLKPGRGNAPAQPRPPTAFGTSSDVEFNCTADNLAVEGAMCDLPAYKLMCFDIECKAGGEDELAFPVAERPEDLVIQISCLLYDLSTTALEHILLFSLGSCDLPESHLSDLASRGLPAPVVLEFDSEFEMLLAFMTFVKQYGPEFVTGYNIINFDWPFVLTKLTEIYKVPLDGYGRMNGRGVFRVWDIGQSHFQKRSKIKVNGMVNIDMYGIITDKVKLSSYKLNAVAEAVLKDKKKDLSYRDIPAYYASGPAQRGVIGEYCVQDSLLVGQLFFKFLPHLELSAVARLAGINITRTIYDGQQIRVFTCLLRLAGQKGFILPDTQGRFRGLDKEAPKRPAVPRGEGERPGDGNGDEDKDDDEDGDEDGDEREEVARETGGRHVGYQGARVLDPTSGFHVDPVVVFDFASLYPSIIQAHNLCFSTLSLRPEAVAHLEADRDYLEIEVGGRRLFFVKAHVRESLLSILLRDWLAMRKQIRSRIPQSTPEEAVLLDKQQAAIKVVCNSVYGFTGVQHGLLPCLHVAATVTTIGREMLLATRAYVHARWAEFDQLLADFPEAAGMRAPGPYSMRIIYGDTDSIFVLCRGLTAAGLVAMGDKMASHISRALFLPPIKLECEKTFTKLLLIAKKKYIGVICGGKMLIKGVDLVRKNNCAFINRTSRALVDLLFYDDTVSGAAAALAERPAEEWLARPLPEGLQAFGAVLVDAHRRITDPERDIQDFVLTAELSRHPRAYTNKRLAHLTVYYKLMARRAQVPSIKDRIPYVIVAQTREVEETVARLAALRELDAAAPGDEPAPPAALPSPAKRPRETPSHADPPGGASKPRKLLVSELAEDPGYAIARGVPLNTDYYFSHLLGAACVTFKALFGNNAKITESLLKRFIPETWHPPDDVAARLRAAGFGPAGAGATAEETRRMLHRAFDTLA
Description: Viral DNA polymerase assay. It counts as biochemical, herpes simplex virus type 2. Conditions: 50% inhibition of herpes simplex type 2 DNA polymerase; read-out: Concentration (μg/ml) giving 50% Percent Inhibition (converted). On the procedure:
Isolation and Purification of Herpes Simplex Type 2 Deoxyribonucleic Acid (DNA) Polymerase
The DNA polymerase was isolated according to the procedure of Smith and Gallo (1972) which involved column chromatography on DEAE-cellulose and phosphocellulose. However, buffer containing 20% glyceryl instead of 10% was used. The final enzyme preparation has a specific activity of 313 unit/mg. for herpes simplex virus type 2.
Viral Deoxyribonucleic Acid (DNA) Polymerase Assay
The reaction mixture (0.2 ml.) contains 10 μM of 2'-deoxyadenosine-5'-triphosphate, 2'-deoxycytidine-5'-triphosphate, 2'-deoxyguanosine-5'-triphosphate, and 2.5 μM tritium labeled thymidine-5'-triphosphate which was appropriately diluted with unlabeled dTTP to give 880 counts per minute per pico-mole, 10 μg of activated calf thymus DNA 50 mM Tris-HCl buffer (pH 8.0), 3mM MgCl2, 100 mM KCl and 1 mM dithiothritol. The amounts of enzyme used in each reaction was chosen to give a linear rate for at least 30 minutes at 37° C. The reaction was terminated by the addition of 3 ml. of cold 5% trichloroacetic acid - 0.01 M sodium pyrophosphate. The acid-insoluble material was collected, washed twice on glass filter discs (Reeve Angel 984-H) and the incorporated ^3 H-dTMP was determined by a liquid scintillation counter.

Experiment [2] relates to herpes simplex virus (HSV) type 1 or type 2. Kind of experiment: Antiviral activity by plaque reduction method. Conditions: rabbit kidney cells, plaques counted 3 to 4 days after infection. Type of experiment: cell-based, herpes simplex virus (in rabbit kidney cells). Further details: key: 0 = inactive; +2 = moderate activity; +4 = very active. On the procedure: Determination of Antiviral Activity by Plaque Reduction Method
The inhibitory effect of new compounds upon herpes simplex virus (HSV) type 1 or type 2 was analyzed by the plaque reduction assay. Confluent monolayers of rabbit kidney cells grown in 60 mm plastic petri dishes were infected with HSV by adsorption for 1 hour at room temperature. The appropriate concentration of the test compound was added at the time of initial virus infection. Following virus adsorption the cells were overlayed with Eagle's medium (BME) supplemented with 10% fetal bovine serum, 0.225% NaHCO3 and 0.5% methycellulose. The appropriate concentration of the test compound was also added to this overlay. Infected cultures were then incubated at 37° C. for the remainder of the test. Three to four days following virus infection, each culture was stained with crystal violet and the herpes virus induced plaques counted.
Background: In a plaque reduction assay, fewer plaques than in the control indicate reduced infectivity or spread.

Experiment [3] concerns herpes simplex infections. Description: Topical test against herpes simplex infections in CF mice. Conditions: 10 mice per group, topical 2% aqueous solution, 11 applications, 14 day test. Type of experiment: in vivo. On the procedure: The following test was applied to determine the effectiveness of the carboxylic esters of phosphonoacetic acid against herpes simplex infections in mice. The compounds tested included the compounds shown above as II and III. Also included were a standard virus control as well as a normal (no virus) control.
Herpes virus (10^7 TCID50 /ml) was applied topically (0.05 ml) to the denuded skin and impregnated into the dermis with a 24-gauge sterile hypodermic needle. In untreated animals, herpes lesions or vesicles usually develop in 3 to 5 days. The lesions form bands which extend over the denuded area. After approximately 10 days, mice usually develop a paralysis which results in their death. The test was allowed to continue for a total of 14 days.
Some of the animals were treated topically by having the drug applied to the site of infection as a 2% aqueous solution 2 hours after the virus was introduced into the skin, and twice daily for 5 consecutive days. The drug was applied a total of 11 times. A single application of a 2% drug solution delivered approximately 2 mg of material.
The Mann-Whitney "U" Test was used to statistically analyze the herpes infection in mice by making paired comparisons between the treated and untreated virus control groups. […]

Turning to `COC(=O)CP(=O)(O)O` [Compound III, Methyl Phosphonoacetate], the IC50 in experiment [1] is 45.4 µM. Further, the Inhibition of plaques entry in experiment [2] is “+2”. Further, in experiment [3], the “No. of Mice Dead” value stood at 5 and the “No. of Mice Paralyzed” value stood at 2.

As for `CCOC(=O)CP(=O)(O)O` [Compound II, Ethyl Phosphonoacetate], in experiment [1], the IC50 is 23.2 µM. The Inhibition of plaques result in experiment [2] is “+4”. In addition, in experiment [3], the “No. of Mice Dead” value was found to be 3 and the “No. of Mice Paralyzed” value amounted to 2.
